Measured values as given in article PMC12396409, “Screening and hit evaluation of a microbial metabolite library against the pathogenic Plasmodium falciparum and Toxoplasma gondii parasites” (International Journal for Parasitology: Drugs and Drug …, 2025).
Like-named read-outs stand apart in the source and are kept apart here. *1 amine or outer side, *2 acyl side, *3 side chain or, on linkers, in order; H or OH if unused. Where a SMILES comes first, the peptide text is derived from it. Bridges are numbered along the chain shown (N, C = ends). [ ]: non-standard residue; d: D form. The star is where a group is joined. X1 = O=C1C[C@@H](C(=O)[*:2])N([*:1])C[C@H]1CS[C@@H]1CN2CCC1CC2; NMePhe(4-NMe2) = CN[C@@H](Cc1ccc(N(C)C)cc1)C(=O)O; Picolinoyl(3-OH) = O=C(c1ncccc1O)*; Phg = N[C@H](C(=O)O)c1ccccc1; dAbu = CC[C@@H](N)C(=O)O

What was measured:
[1] = system: P. falciparum 3D7 parasites; experiment: P. falciparum growth inhibition assay, 1-cycle (72 h treatment), SYBR DNA staining (library screen at 2 μg/mL and dose-response); format: cell-based, Plasmodium falciparum; details: for activity at 2 µg/mL: Plasmodium falciparum
[2] = system: P. falciparum 3D7 parasites; experiment: P. falciparum growth inhibition assay, 2-cycle (120 h treatment), delayed-death screen and dose-response; format: cell-based, Plasmodium falciparum; details: for activity at 2 µg/mL: Plasmodium falciparum
[3] = system: T. gondii RH strain (RH-Tub-eYFP) tachyzoites; experiment: microbe, parasite or virus in culture; format: cell-based, Toxoplasma gondii; details: 72 h; for percent parasite growth at 2 µg/mL: Toxoplasma gondii
[4] = T. gondii, 2 μg/mL, values are growth (% of control)
[5] = T. gondii, screen at 2 μg/mL, replicate 1, read-out: Tg_72h_%Growth_Rep1
[6] = T. gondii, screen at 2 μg/mL, replicate 2, read-out: Tg_72h_%Growth_Rep2
[7] = library screen at 2 μg/mL, 72 h, % growth, replicate 1
[8] = library screen at 2 μg/mL, 72 h, % growth, replicate 2
[9] = library screen at 2 μg/mL, 120 h, % growth, replicate 1
[10] = library screen at 2 μg/mL, 120 h, % growth, replicate 2
[11] = library screen at 2 μg/mL, % growth, replicate 1
[12] = library screen at 2 μg/mL, % growth, replicate 2
[13] = P. falciparum, 72 h, parasite screen 2 μg/mL, % growth, replicate 1
[14] = P. falciparum, 72 h, parasite screen 2 μg/mL, % growth, replicate 2
[15] = P. falciparum, 120 h, parasite screen 2 μg/mL, % growth, replicate 1
[16] = P. falciparum, 120 h, parasite screen 2 μg/mL, % growth, replicate 2
[17] = T. gondii, parasite screen 2 μg/mL, % growth, replicate 1
[18] = T. gondii, parasite screen 2 μg/mL, % growth, replicate 2
[19] = P. falciparum, 72 h, screen at 2 μg/mL, replicate 1
[20] = P. falciparum, 72 h, screen at 2 μg/mL, replicate 2
[21] = P. falciparum, 120 h, screen at 2 μg/mL, replicate 1
[22] = P. falciparum, 120 h, screen at 2 μg/mL, replicate 2
[23] = T. gondii, screen at 2 μg/mL, replicate 1
[24] = P. falciparum 3D7, 72 h, library screen at 2 μg/mL, % growth, replicate 1
[25] = P. falciparum 3D7, 72 h, library screen at 2 μg/mL, % growth, replicate 2
[26] = P. falciparum 3D7, 120 h, library screen at 2 μg/mL, % growth, replicate 1
[27] = P. falciparum 3D7, 120 h, library screen at 2 μg/mL, % growth, replicate 2
[28] = T. gondii RH, library screen at 2 μg/mL, % growth, replicate 1
[29] = T. gondii RH, library screen at 2 μg/mL, % growth, replicate 2

Compound: COc1cc2c(oc(=O)c3cc(C)cc(OC)c32)c2c([C@@H]3O[C@H](C)[C@H](O)[C@@](C)(O)[C@H]3O)ccc(O)c12 [Chrysomycin B]
- activity at 2 µg/mL ([1]; 3D7, 72 h, P. falciparum, 72 h, screen at 2 μg/mL, replicate 1, read-out: Pf_72h_%Growth_Rep1): 67.5%
- activity at 2 µg/mL ([1]; 3D7, 72 h, P. falciparum, 72 h, screen at 2 μg/mL, replicate 2, read-out: Pf_72h_%Growth_Rep2): 64.1%
- activity at 2 µg/mL ([2]; 3D7, 120 h, P. falciparum, 120 h, screen at 2 μg/mL, replicate 1, read-out: Pf_120h_%Growth_Rep1): 73%
- activity at 2 µg/mL ([2]; 3D7, 120 h, P. falciparum, 120 h, screen at 2 μg/mL, replicate 2, read-out: Pf_120h_%Growth_Rep2): 73.7%
- Mean ([3]; T. gondii, 2 μg/mL, mean of both replicates, growth (% of control)): 21.06
- Replicate 1 [3, 4]: 25.01
- Replicate 2 [3, 4]: 17.10
- percent parasite growth at 2 µg/mL [3, 5]: 25%
- percent parasite growth at 2 µg/mL [3, 6]: 17.1%

Compound: COC12c3c(C)cc(O)c4c(=O)occ(c34)C(=O)C1C13COC(=O)c4c(O)cc(C)c(c41)C(=O)C2C3OC(C)=O (centres unmarked) [Duclauxin]
- Pf_72h_%Growth_Rep1 [1, 7]: 87.43%
- Pf_72h_%Growth_Rep2 [1, 8]: 79.39%
- Pf_120h_%Growth_Rep1 [2, 9]: 87.90%
- Pf_120h_%Growth_Rep2 [2, 10]: 120.62%
- Tg_72h_%Growth_Rep1 [3, 11]: 149.61%
- Tg_72h_%Growth_Rep2 [3, 12]: 92.65%

Compound: O=C(/C=C/C=C/C=C/C1CCCCC1)NC1=C[C@@](O)(/C=C/C=C/C=C/C(=O)NC2=C(O)CCC2=O)[C@@H]2O[C@@H]2C1=O [Asukamycin]
- Pf_72h_%Growth_Rep1 [1, 7]: 79.58%
- Pf_72h_%Growth_Rep2 [1, 8]: 78.85%
- Pf_120h_%Growth_Rep1 [2, 9]: 67.03%
- Pf_120h_%Growth_Rep2 [2, 10]: 82.56%
- Tg_72h_%Growth_Rep1 [3, 11]: 161.41%
- Tg_72h_%Growth_Rep2 [3, 12]: 93.58%

Compound: CC(C)c1ncc(Cc2ccccc2)[nH]c1=O [Aureusimine B]
- Pf_72h_%Growth_Rep1 [1, 7]: 102.22%
- Pf_72h_%Growth_Rep2 [1, 8]: 85.03%
- Pf_120h_%Growth_Rep1 [2, 9]: 140.97%
- Pf_120h_%Growth_Rep2 [2, 10]: 94.84%
- Tg_72h_%Growth_Rep1 [3, 11]: 82.28%
- Tg_72h_%Growth_Rep2 [3, 12]: 99.21%

Compound: CCCCCCCCCCCCCCCC(=O)OC[C@@H](NC(=O)C(Cl)Cl)[C@H](O)c1ccc([N+](=O)[O-])cc1 [Chloramphenicol palmitate]
- activity at 2 µg/mL ([1]; 3D7, P. falciparum, 72 h, screen at 2 μg/mL, replicate 1, read-out: Pf_72h_%Growth_Rep1): 83.7%
- activity at 2 µg/mL ([1]; 3D7, P. falciparum, 72 h, screen at 2 μg/mL, replicate 2, read-out: Pf_72h_%Growth_Rep2): 81.8%
- activity at 2 µg/mL ([2]; 3D7, P. falciparum, 120 h, screen at 2 μg/mL, replicate 1, read-out: Pf_120h_%Growth_Rep1): 101%
- activity at 2 µg/mL ([2]; 3D7, P. falciparum, 120 h, screen at 2 μg/mL, replicate 2, read-out: Pf_120h_%Growth_Rep2): 90.8%
- percent parasite growth at 2 µg/mL [3, 5]: 153%
- percent parasite growth at 2 µg/mL [3, 6]: 98.2%

Compound: CC[C@H]1NC(=O)[C@@H](NC(=O)c2ncccc2O)[C@@H](C)OC(=O)[C@H](c2ccccc2)NC(=O)[C@@H]2CC(=O)[C@H](CS[C@@H]3CN4CCC3CC4)CN2C(=O)[C@H](Cc2ccc(N(C)C)cc2)N(C)C(=O)[C@@H]2CCCN2C1=O.CS(=O)(=O)O [Quinupristin mesylate] ({Picolinoyl(3-OH)}-T[dAbu]P[NMePhe(4-NMe2)][X1][Phg]; ester 1-C)
- Pf_72h_%Growth_Rep1 [1, 13]: 73.76%
- Pf_72h_%Growth_Rep2 [1, 14]: 97.23%
- Pf_120h_%Growth_Rep1 [2, 15]: 64.23%
- Pf_120h_%Growth_Rep2 [2, 16]: 110.37%
- Tg_72h_%Growth_Rep1 [3, 17]: 87.31%
- Tg_72h_%Growth_Rep2 [3, 18]: 81.75%

Compound: CC1=C[C@]2(C)/C=C(C)/C=C/C[C@@H](O)/C=C3C=C/C(=C4\C(=O)O[C@]2(C[C@@H]1C)C4=O)OC/3 [Spirohexenolide A]
- Pf_72h_%Growth_Rep1 [1, 13]: 8.85%
- Pf_72h_%Growth_Rep2 [1, 14]: 0.46%
- Pf_120h_%Growth_Rep1 [2, 15]: 19.42%
- Pf_120h_%Growth_Rep2 [2, 16]: -9.19%
- Tg_72h_%Growth_Rep1 [3, 17]: 115.19%
- Tg_72h_%Growth_Rep2 [3, 18]: 70.63%

Compound: COc1cc(C)c(C(=O)Oc2cc(C)c(C(=O)O)c(O)c2C)c(OC)c1C [Diffractaic acid]
- activity at 2 µg/mL ([1]; 3D7, library screen at 2 μg/mL, 72 h, % growth, replicate 1, read-out: Pf_72h_%Growth_Rep1): 80.1%
- activity at 2 µg/mL ([1]; 3D7, library screen at 2 μg/mL, 72 h, % growth, replicate 2, read-out: Pf_72h_%Growth_Rep2): 79.9%
- activity at 2 µg/mL ([2]; 3D7, library screen at 2 μg/mL, 120 h, % growth, replicate 1, read-out: Pf_120h_%Growth_Rep1): 91.2%
- activity at 2 µg/mL ([2]; 3D7, library screen at 2 μg/mL, 120 h, % growth, replicate 2, read-out: Pf_120h_%Growth_Rep2): 81.2%
- percent parasite growth at 2 µg/mL ([3]; library screen at 2 μg/mL, % growth, replicate 1, read-out: Tg_72h_%Growth_Rep1): 133%
- percent parasite growth at 2 µg/mL ([3]; library screen at 2 μg/mL, % growth, replicate 2, read-out: Tg_72h_%Growth_Rep2): 97.5%

Compound: CCCC[C@@H](C)[C@@H](OC(=O)C[C@@H](CC(=O)O)C(=O)O)[C@H](C[C@@H](C)C[C@H](O)CCCC[C@@H](O)C[C@H](O)[C@H](C)N)OC(=O)C[C@@H](CC(=O)O)C(=O)O [Fumonisin B1]
- Pf_72h_%Growth_Rep1 [1, 7]: 90.20%
- Pf_72h_%Growth_Rep2 [1, 8]: 119.39%
- Pf_120h_%Growth_Rep1 [2, 9]: 97.02%
- Pf_120h_%Growth_Rep2 [2, 10]: 120.58%
- Tg_72h_%Growth_Rep1 [3, 11]: 135.48%
- Tg_72h_%Growth_Rep2 [3, 12]: 98.34%

Compound: C/C=C/C[C@@H](C)[C@@H](O)[C@H]1C(=O)N[C@@H](CC)C(=O)N(C)CC(=O)N(C)[C@@H](CC(C)C)C(=O)N[C@@H](C(C)C)C(=O)N(C)[C@@H](CC(C)C)C(=O)N[C@@H](C)C(=O)N[C@H](C)C(=O)N(C)[C@@H](CC(C)C)C(=O)N(C)[C@@H](CC(C)C)C(=O)N(C)[C@H](C(C)C)C(=O)N1C [Cyclosporin H]
- Pf_72h_%Growth_Rep1 [1, 19]: 6.54%
- Pf_72h_%Growth_Rep2 [1, 20]: 2.27%
- Pf_120h_%Growth_Rep1 [2, 21]: 5.94%
- Pf_120h_%Growth_Rep2 [2, 22]: 7.89%
- Tg_72h_%Growth_Rep1 [3, 23]: 148.50%

Compound: COC(=O)C1=COC(C)C2CN3CCc4c([nH]c5cc(OC)c(OC)cc45)C3CC12 (centres unmarked) [BIA-I1957]
- Pf_72h_%Growth_Rep1 [1, 24]: 25.00%
- Pf_72h_%Growth_Rep2 [1, 25]: 24.20%
- Pf_120h_%Growth_Rep1 [2, 26]: 15.82%
- Pf_120h_%Growth_Rep2 [2, 27]: -7.23%
- Tg_72h_%Growth_Rep1 [3, 28]: 168.01%
- Tg_72h_%Growth_Rep2 [3, 29]: 105.99%

Compound: Viridicatumtoxin
- Pf_72h_%Growth_Rep1 [1, 19]: 2.34%
- Pf_72h_%Growth_Rep2 [1, 20]: 2.82%
- Pf_120h_%Growth_Rep1 [2, 21]: 6.51%
- Pf_120h_%Growth_Rep2 [2, 22]: 13.13%
- Tg_72h_%Growth_Rep1 [3, 23]: 122.40%
- Tg_72h_%Growth_Rep2 ([3]; T. gondii, screen at 2 μg/mL, replicate 2): 65.71%

Compound: CC(=O)N[C@H]1CCOC1=O [Acetyl-L-homoserine lactone]
- Pf_72h_%Growth_Rep1 [1, 7]: 5.19%
- Pf_72h_%Growth_Rep2 [1, 8]: 20.05%
- Pf_120h_%Growth_Rep1 [2, 9]: 2.96%
- Pf_120h_%Growth_Rep2 [2, 10]: 5.45%
- Tg_72h_%Growth_Rep1 [3, 11]: 88.39%
- Tg_72h_%Growth_Rep2 [3, 12]: 103.34%

Compound: CCC(C(=O)C(C)C(O)C(C)CCc1ccc(C)c(O)c1C(=O)O)C1OC(CC)(C2CCC(O)(CC)C(C)O2)CC1C (centres unmarked) [BIA-L1533]
- Pf_72h_%Growth_Rep1 [1, 24]: 6.55%
- Pf_72h_%Growth_Rep2 [1, 25]: 4.89%
- Pf_120h_%Growth_Rep1 [2, 26]: 6.55%
- Pf_120h_%Growth_Rep2 [2, 27]: 19.46%
- Tg_72h_%Growth_Rep1 [3, 28]: -0.84%
- Tg_72h_%Growth_Rep2 [3, 29]: -0.33%
